The values below come from ChEMBL document CHEMBL3400110, “Iminopyrimidinones: a novel pharmacophore for the development of orally active renin inhibitors” (Bioorg Med Chem Lett, 2015).

As a reminder, the Ki is a dissociation constant, usually derived from enzyme kinetics or from competition with a known ligand. The inhibition is the percentage by which the read-out fell short of the control. What is called bioavailability is dose-corrected exposure relative to a reference, in per cent. What is called AUC(0-t) is the area under the concentration-time curve up to a stated or last time point. For orientation: IC50 means the point on the concentration scale where inhibition reaches its midpoint. One may read the AUC as concentration integrated over time.

Activity calls are given as the source filed them. The calls are words filed in the database; no cut-off is given here.

Data set [1] addresses T1, Renin (Homo sapiens, UniProt P00797).
T1 sequence (P00797 whole entry): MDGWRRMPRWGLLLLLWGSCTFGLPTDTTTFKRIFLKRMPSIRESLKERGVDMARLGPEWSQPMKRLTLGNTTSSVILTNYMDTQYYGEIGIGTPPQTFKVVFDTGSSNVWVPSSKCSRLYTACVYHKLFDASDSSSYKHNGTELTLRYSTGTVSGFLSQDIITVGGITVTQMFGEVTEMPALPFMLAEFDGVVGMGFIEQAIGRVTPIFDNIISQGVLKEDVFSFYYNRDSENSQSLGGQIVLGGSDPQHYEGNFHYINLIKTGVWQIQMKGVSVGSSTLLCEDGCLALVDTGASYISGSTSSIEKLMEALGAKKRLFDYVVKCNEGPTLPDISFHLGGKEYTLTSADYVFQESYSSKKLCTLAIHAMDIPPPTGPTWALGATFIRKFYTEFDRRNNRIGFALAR
The data set is described as follows: Inhibition of renin (unknown origin).

Data set [2] addresses hERG (KCNH2) (Homo sapiens, UniProt Q12809). The data set is described as follows: Inhibition of human ERG at 10 uM.
In data set [3] the test system is Rattus norvegicus. Nature of the data set: Antihypertensive activity in rat/human renin double transgenic rat model assessed as maximum reduction in mean arterial pressure at 10 mg/kg, po. In kind it is functional, Artery.
Data set [4] in a line: clinical. To be noted: human, in vivo, po.
Data set [5] deals with Beta-secretase 1 (Homo sapiens, UniProt P56817). Nature of the data set: Inhibition of BACE1 (unknown origin).
Beta-secretase 1, sequence (P56817 whole entry): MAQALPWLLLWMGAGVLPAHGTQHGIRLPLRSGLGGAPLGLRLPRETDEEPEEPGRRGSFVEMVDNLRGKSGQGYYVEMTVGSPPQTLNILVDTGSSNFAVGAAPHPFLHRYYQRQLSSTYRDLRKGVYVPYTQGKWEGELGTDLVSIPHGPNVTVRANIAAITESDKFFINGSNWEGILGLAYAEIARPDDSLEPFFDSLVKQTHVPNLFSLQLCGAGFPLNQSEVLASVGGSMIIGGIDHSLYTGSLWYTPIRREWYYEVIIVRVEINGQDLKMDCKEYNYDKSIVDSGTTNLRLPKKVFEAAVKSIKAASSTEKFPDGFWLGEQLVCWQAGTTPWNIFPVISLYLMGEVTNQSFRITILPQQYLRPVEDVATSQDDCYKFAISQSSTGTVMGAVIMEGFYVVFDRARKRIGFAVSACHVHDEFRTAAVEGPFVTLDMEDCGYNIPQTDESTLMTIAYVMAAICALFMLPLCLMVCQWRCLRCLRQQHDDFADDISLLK
For data set [6], the target named is Cathepsin D (Homo sapiens, UniProt P07339). Nature of the data set: Inhibition of CathD (unknown origin).
Cathepsin D, sequence (P07339 65-162 limits assumed): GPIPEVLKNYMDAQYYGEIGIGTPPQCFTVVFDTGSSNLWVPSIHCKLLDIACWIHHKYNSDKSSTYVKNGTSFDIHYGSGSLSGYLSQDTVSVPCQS
Cathepsin D, sequence (P07339 169-412 limits assumed): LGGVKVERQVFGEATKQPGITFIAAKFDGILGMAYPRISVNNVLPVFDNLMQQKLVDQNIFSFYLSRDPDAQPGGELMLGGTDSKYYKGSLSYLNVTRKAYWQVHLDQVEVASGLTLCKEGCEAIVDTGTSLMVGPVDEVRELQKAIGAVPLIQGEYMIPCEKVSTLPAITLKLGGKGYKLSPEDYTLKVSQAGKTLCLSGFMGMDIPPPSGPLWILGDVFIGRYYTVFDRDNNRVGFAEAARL
Data set [7] in a line: AUC (0 to 6 hrs) in rat at 10 mg/kg, po. In kind it is ADME, organism-based. More on the design: time < 6 hr, dose 10 mg/kg, route oral. The conditions noted are these: plasma.
For data set [8], the species on record is Homo sapiens. The data set is described as follows: Clearance in human assessed per million cells. In kind it is ADME, cell-based.
Data set [9] deals with T2, Beta-secretase 2 (Homo sapiens, UniProt Q9Y5Z0).
T2 sequence (Q9Y5Z0 whole entry): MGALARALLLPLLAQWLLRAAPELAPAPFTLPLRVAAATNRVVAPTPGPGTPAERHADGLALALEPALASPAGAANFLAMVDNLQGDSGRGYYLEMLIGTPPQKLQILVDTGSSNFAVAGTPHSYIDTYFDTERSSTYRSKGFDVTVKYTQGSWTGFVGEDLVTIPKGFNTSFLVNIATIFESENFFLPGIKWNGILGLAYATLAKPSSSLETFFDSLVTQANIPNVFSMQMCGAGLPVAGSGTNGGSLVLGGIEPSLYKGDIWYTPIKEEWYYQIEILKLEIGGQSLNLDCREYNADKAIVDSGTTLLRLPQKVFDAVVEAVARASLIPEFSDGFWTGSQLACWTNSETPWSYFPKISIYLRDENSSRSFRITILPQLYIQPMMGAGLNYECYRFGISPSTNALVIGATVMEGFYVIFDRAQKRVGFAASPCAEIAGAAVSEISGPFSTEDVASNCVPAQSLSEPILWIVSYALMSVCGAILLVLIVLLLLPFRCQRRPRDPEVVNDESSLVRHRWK
Nature of the data set: Inhibition of BACE2 (unknown origin).

Data set [10] deals with T3, Cathepsin E (Homo sapiens, UniProt P14091).
T3 sequence (P14091 whole entry): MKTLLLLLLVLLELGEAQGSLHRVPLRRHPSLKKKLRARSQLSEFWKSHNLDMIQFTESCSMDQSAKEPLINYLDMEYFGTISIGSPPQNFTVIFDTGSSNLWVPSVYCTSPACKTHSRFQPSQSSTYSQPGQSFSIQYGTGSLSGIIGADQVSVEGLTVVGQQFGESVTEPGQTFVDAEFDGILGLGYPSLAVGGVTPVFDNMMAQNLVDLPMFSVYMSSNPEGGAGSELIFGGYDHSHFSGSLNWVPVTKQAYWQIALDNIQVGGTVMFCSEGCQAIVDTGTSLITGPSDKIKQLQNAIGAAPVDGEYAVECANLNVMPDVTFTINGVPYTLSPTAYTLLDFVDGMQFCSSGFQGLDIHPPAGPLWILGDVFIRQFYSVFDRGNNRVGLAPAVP
The data set is described as follows: Inhibition of CathE (unknown origin).

Data set [11] in a line: Inhibition of pepsin (unknown origin). More on the design: species or system Homo sapiens.
Data set [12] is described as follows: Inhibition of CYP (unknown origin). It is filed as ADME. To be noted: human.
In data set [13] the target is T4, Nuclear receptor subfamily 1 group I member 2 (Homo sapiens, UniProt O75469).
T4 sequence (O75469 whole entry): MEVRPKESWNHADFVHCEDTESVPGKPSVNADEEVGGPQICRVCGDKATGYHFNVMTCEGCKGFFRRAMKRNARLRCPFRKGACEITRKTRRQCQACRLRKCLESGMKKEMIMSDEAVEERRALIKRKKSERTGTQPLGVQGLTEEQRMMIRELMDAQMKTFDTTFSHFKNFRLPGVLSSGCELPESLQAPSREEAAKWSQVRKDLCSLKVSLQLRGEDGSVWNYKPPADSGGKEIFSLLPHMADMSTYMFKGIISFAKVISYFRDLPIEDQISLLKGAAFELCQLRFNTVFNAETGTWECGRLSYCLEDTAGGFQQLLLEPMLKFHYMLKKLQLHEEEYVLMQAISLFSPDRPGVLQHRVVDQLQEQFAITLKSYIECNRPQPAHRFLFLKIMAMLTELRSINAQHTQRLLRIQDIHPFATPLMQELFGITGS
The data set is described as follows: Inhibition of PXR (unknown origin). In kind it is ADME.

Data set [14] concerns the target Voltage-gated inwardly rectifying potassium channel KCNH2 (Homo sapiens, UniProt Q12809). Nature of the data set: Inhibition of human ERG by voltage clamp method.
A short description of data set [15]: Protein binding in rat plasma. To be noted: read-out: PPB (converted). In kind it is ADME, cell-free.
The nature of data set [16]: Protein binding in human plasma. In kind it is ADME, cell-free. To be noted: read-out: PPB (converted).
For data set [17], the species on record is Homo sapiens. Nature of the data set: Inhibition of Na+ channel site 2 (unknown origin) at 10 uM.
The target of data set [18] is Sodium-dependent dopamine transporter (Homo sapiens) (UniProt Q01959). Nature of the data set: Inhibition of human dopamine transporter at 10 uM.
Sodium-dependent dopamine transporter (Homo sapiens), sequence (Q01959 whole entry): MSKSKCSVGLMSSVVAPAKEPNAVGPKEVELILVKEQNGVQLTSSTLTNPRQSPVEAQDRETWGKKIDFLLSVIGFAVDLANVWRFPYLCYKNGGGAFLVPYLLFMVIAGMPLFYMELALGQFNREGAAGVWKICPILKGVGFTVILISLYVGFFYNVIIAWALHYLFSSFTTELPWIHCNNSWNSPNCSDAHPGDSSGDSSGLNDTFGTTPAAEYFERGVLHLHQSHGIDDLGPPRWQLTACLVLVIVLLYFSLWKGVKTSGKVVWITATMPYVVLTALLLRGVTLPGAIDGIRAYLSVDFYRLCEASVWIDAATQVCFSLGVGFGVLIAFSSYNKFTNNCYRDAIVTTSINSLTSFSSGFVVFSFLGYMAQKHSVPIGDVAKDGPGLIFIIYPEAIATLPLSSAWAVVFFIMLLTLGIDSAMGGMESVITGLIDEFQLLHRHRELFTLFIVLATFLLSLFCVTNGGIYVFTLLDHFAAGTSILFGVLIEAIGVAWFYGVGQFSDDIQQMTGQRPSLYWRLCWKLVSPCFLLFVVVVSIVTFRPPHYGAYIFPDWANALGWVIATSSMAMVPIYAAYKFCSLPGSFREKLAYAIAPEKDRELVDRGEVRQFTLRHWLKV
The target of data set [19] is D(1A) dopamine receptor (Homo sapiens) (UniProt P21728). Nature of the data set: Inhibition of human D1 receptor at 10 uM.
D(1A) dopamine receptor (Homo sapiens), sequence (P21728 whole entry): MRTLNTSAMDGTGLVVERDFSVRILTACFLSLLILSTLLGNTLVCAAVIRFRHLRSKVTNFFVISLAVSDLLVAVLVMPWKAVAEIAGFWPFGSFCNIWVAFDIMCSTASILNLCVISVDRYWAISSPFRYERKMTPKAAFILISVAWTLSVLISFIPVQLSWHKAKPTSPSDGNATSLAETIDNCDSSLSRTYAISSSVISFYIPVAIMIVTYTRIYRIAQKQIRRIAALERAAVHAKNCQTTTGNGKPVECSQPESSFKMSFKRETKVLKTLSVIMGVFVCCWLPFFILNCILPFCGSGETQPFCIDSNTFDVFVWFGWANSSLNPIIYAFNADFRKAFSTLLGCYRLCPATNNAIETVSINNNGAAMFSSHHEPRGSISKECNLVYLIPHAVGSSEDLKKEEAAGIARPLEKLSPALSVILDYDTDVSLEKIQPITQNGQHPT
The nature of data set [20]: Fraction unbound in rat plasma. In kind it is ADME, cell-free.
In data set [21] the test system is Rattus norvegicus. Nature of the data set: Antihypertensive activity in rat/human renin double transgenic rat model assessed as reduction in mean arterial pressure at 10 mg/kg, po after 17 hrs. In kind it is functional, organism-based. To be noted: Artery. Further details: dose 10 mg/kg.
The subject of data set [22] is Rattus norvegicus. The data set is described as follows: Antihypertensive activity in rat/human renin double transgenic rat model assessed as reduction in mean arterial pressure at 10 mg/kg, po after 20 hrs. More on the design: dose 10 mg/kg. The conditions noted are these: Artery. It is filed as functional, organism-based.
Data set [23] in a line: AUC in dog at 3 mg/kg, po. Further details: dose 3 mg/kg, route oral. It is filed as ADME, organism-based, Canis lupus familiaris. To be noted: plasma.
A short description of data set [24]: Oral bioavailability in dog at 3 mg/kg. In kind it is ADME, organism-based, Canis lupus familiaris. The conditions noted are these: in vivo.
Data set [25] in a line: AUC in cynomolgus monkey at 3 mg/kg, po. In kind it is ADME, organism-based, Macaca fascicularis. More on the design: dose 3 mg/kg, route oral. The conditions noted are these: plasma.
Data set [26] is described as follows: Oral bioavailability in cynomolgus monkey at 3 mg/kg. In kind it is ADME, organism-based, Macaca fascicularis. To be noted: in vivo.
The nature of data set [27]: Permeability across human Caco2 cells. It is filed as ADME, cell-based. To be noted: Caco-2, read-out: permeability. Background: Caco-2 monolayers are a common model of the intestinal barrier.

hERG (KCNH2), sequence (Q12809 whole entry): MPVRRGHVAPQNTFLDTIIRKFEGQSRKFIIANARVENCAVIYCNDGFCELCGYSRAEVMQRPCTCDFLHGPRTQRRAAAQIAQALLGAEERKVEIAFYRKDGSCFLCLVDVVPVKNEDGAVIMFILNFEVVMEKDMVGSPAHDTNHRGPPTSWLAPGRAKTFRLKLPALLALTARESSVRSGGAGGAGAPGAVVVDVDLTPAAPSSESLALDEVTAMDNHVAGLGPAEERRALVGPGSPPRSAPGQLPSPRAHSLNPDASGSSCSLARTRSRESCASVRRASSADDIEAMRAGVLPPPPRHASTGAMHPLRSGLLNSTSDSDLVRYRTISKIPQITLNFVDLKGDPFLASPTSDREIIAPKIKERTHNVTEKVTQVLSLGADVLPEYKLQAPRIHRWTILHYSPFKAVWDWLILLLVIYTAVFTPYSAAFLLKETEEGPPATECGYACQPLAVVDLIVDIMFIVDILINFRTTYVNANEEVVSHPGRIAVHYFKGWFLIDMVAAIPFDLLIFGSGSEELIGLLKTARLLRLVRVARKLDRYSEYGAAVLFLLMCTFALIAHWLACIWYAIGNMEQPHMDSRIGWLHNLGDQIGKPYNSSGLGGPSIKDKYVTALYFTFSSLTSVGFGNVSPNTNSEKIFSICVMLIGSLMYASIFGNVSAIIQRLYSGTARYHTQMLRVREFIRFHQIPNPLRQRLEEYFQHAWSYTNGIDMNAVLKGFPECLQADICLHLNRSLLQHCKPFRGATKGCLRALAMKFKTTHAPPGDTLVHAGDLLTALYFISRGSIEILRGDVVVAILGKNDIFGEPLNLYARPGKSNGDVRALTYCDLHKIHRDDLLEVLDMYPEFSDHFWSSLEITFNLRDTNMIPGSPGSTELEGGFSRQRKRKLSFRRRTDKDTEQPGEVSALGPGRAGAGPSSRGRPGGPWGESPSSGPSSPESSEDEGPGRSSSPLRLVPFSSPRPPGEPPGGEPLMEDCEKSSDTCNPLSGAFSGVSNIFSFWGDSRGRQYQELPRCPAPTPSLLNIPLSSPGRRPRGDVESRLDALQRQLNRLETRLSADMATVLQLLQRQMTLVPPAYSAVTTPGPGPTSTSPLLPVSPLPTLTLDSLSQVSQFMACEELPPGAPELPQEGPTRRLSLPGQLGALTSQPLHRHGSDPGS
Voltage-gated inwardly rectifying potassium channel KCNH2, sequence (Q12809 whole entry): as above

The compound `CC(C)[C@]1(C)CC(=O)N(Cc2cccc(N3CC(c4cccc(Cl)c4)CC3=O)c2)C(=N)N1` (stereo partly drawn) registered an inhibition constant Ki in [1] of 2 nM. Also, in [2], 10 µM produced 92% inhibition.

In the case of `COCCCOc1cc(C[C@@H](C[C@H](N)[C@@H](O)C[C@H](C(=O)NCC(C)(C)C(N)=O)C(C)C)C(C)C)ccc1OC`, in data set [3], the Activity stood at 43 mmHg. In [4], this compound came in with a bioavailability of 2.5%.

With `CC(C)[C@]1(C)CC(=O)N(Cc2cc(F)cc(C(=O)N[C@@H](C)c3ccccc3)c2)C(=N)N1`, the Ki was 0.6 nM in [1]; over 10000 nM in [5]; 180 nM in data set [6]; 480 nM in data set [9]; 1100 nM in data set [10]; over 10000 nM in data set [11]. The AUC(0-t) at 6 h in data set [7] came out at 6.52 µM·h. In data set [8], the CL came out at 4 µL/min. For the same compound, the INH in [12] and in data set [13] was over 30 µM in each case. This compound also showed an IC50 in data set [14] of 9000 nM. In addition, the fraction unbound was 0.059 in [15], 0.058 in [16] and 0.059 in data set [20]. Besides, the inhibition in data set [17] turned out to be 79%; in data set [18] it was 51%; in data set [19], 64%. In addition, the Activity in data set [3] is on record as 66 mmHg. The result in [21] and in data set [22] was Active. The AUC in data set [23] came to 3 µM·h; in data set [25] it was 1 µM·h. In addition, the results for the bioavailability in [24] and in data set [26] were 38% and 9%, respectively.

Compound `CC(C)[C@]1(C)CC(=O)N(Cc2cccc(C(=O)N[C@H](C)c3ccccc3)c2)C(=N)N1` registered an inhibition constant Ki in data set [1] of 86 nM. The compound also yielded an exposure AUC(0-t) at 6 h in data set [7] of 0.173 µM·h.

In [1], `CN[C@H](CNC(=O)N1CCC[C@@H]([C@@H](OCCNC(=O)OC)c2cccc(Cl)c2)C1)C[C@H]1CCCOC1` [VTP-27999] had an IC50 of 0.5 nM.

Take `CC(C)[C@]1(C)CC(=O)N(Cc2cccc(C(=O)N[C@@H](C)c3ccccc3)c2)C(=N)N1`: the inhibition constant Ki in [1] stood at 2.2 nM. The same compound registered an exposure AUC(0-t) at 6 h in data set [7] of 0.405 µM·h.

Take `CC(C)[C@]1(C)CC(=O)N(Cc2cccc(C(=O)NCc3ccccc3)c2)C(=N)N1`: the Ki in [1] was 56 nM; in [5], over 10000 nM; in data set [6] it was 2700 nM. Further, the AUC(0-t) at 6 h in [7] came to 0.031 µM·h. The compound also returned a CL in data set [8] of 3.7 µL/min. Also, the Papp in data set [27] was found to be 0.09 ×10⁻⁶ cm/s.

For the compound `C[C@@]1(c2ccc3sccc3c2)CC(=O)N(Cc2cccc(C(=O)NCc3ccccc3)c2)C(=N)N1`, the figures for the inhibitory constant (Ki) in data set [1], in [5] and in [6] were 82 nM, 3820 nM and 19500 nM, respectively. The same compound returned an AUC(0-t) at 6 h in data set [7] of 0.049 µM·h.

Turning to `CC(C)[C@]1(C)CC(=O)N(Cc2ccnc(N3CC[C@H](c4ccccc4)C3)c2)C(=N)N1`, in [1], the Ki was 15 nM. The same compound had an AUC(0-t) at 6 h in data set [7] of 0.595 µM·h. Besides, the inhibition at 10 µM in data set [2] came out at 72%.

In [1], `CC(C)[C@]1(C)CC(=O)N(Cc2cc(F)cc(N3C[C@@H](c4ccccc4)CC3=O)c2)C(=N)N1` had an inhibition constant (Ki) of 19 nM. For the same compound, the AUC(0-t) at 6 h in data set [7] stood at 2.25 µM·h. Further, in data set [8], the CL was found to be 7.6 µL/min. For the same compound, the Papp in [27] was 6.7 ×10⁻⁶ cm/s. Further, testing at 10 µM in data set [2] gave an inhibition of 85%.

As to `CC(C)[C@]1(C)CC(=O)N(Cc2cccc(N3C[C@H](c4ccccc4)CC3=O)c2)C(=N)N1`, the inhibition constant Ki in [1] came to 420 nM.

Turning to `CC(C)[C@]1(C)CC(=O)N(Cc2cccc(N3C[C@@H](c4ccccc4)CC3=O)c2)C(=N)N1`, the affinity in data set [1], expressed as Ki, was 44 nM. Also, the AUC(0-t) at 6 h in data set [7] was 2.04 µM·h. The Papp in data set [27] turned out to be 4.2 ×10⁻⁶ cm/s.

Compound `CC(C)[C@]1(C)CC(=O)N(Cc2ccnc(N3C[C@@H](c4ccccc4)CC3=O)c2)C(=N)N1` displayed an inhibition constant Ki in data set [1] of 6 nM. In data set [7], this compound had an AUC(0-t) at 6 h of 2.44 µM·h. Further, the inhibition at 10 µM in data set [2] was 77%.
